Source: the NIST ThermoML archive (doi:10.1021/acs.jced.8b00591)

Test: xn = mol fraction of the nth substance listed
Details: 101.3 kPa, Liquid; for viscosity: Falling or rolling sphere viscometry; for mass density: Vibrating tube method

CCCC[n+]1ccn(C)c1.O=S(=O)([N-]S(=O)(=O)C(F)(F)F)C(F)(F)F + CCOC(=O)OCC
Details | mass density [kg/m3] | viscosity [mPa·s]
288.15 K, x1 = 0.1025 | 1086.84 | 2.12
288.15 K, x1 = 0.2198 | 1177.9 | 4.415
288.15 K, x1 = 0.3178 | 1236.57 | 7.583
288.15 K, x1 = 0.4211 | 1285.86 | 13.26
288.15 K, x1 = 0.5268 | 1327.09 | 20.12
288.15 K, x1 = 0.622 | 1358.33 | 28.36
288.15 K, x1 = 0.7193 | 1385.68 | 38.93
288.15 K, x1 = 0.8139 | 1408.25 | 50.88
288.15 K, x1 = 0.9088 | 1428.49 | 64.94
288.15 K, x1 = 1 | 1445.66 | 78.02
293.15 K, x1 = 0.1025 | 1081.45 | 1.928
293.15 K, x1 = 0.2198 | 1172.7 | 3.925
293.15 K, x1 = 0.3178 | 1231.47 | 6.526
293.15 K, x1 = 0.4211 | 1280.83 | 11.18
293.15 K, x1 = 0.5268 | 1322.13 | 17.25
293.15 K, x1 = 0.622 | 1353.42 | 23.42
293.15 K, x1 = 0.7193 | 1380.79 | 31.68
293.15 K, x1 = 0.8139 | 1403.38 | 40.79
293.15 K, x1 = 0.9088 | 1423.65 | 51.44
293.15 K, x1 = 1 | 1440.84 | 61.32
298.15 K, x1 = 0.1025 | 1076.05 | 1.764
298.15 K, x1 = 0.2198 | 1167.48 | 3.517
298.15 K, x1 = 0.3178 | 1226.35 | 5.739
298.15 K, x1 = 0.4211 | 1275.8 | 9.492
298.15 K, x1 = 0.5268 | 1317.16 | 14.77
298.15 K, x1 = 0.622 | 1348.49 | 19.58
298.15 K, x1 = 0.7193 | 1375.9 | 26.16
298.15 K, x1 = 0.8139 | 1398.52 | 33.25
298.15 K, x1 = 0.9088 | 1418.81 | 41.43
298.15 K, x1 = 1 | 1436.01 | 48.93
303.15 K, x1 = 0.1025 | 1070.65 | 1.618
303.15 K, x1 = 0.2198 | 1162.26 | 3.168
303.15 K, x1 = 0.3178 | 1221.23 | 5.085
303.15 K, x1 = 0.4211 | 1270.77 | 8.179
303.15 K, x1 = 0.5268 | 1312.2 | 12.6
303.15 K, x1 = 0.622 | 1343.58 | 17.03
303.15 K, x1 = 0.7193 | 1371.04 | 21.88
303.15 K, x1 = 0.8139 | 1393.68 | 27.57
303.15 K, x1 = 0.9088 | 1413.97 | 34.06
303.15 K, x1 = 1 | 1431.21 | 39.84
308.15 K, x1 = 0.1025 | 1065.23 | 1.492
308.15 K, x1 = 0.2198 | 1157.03 | 2.873
308.15 K, x1 = 0.3178 | 1216.12 | 4.539
308.15 K, x1 = 0.4211 | 1265.74 | 7.219
308.15 K, x1 = 0.5268 | 1307.25 | 10.76
308.15 K, x1 = 0.622 | 1338.67 | 14.69
308.15 K, x1 = 0.7193 | 1366.17 | 18.7
308.15 K, x1 = 0.8139 | 1388.84 | 23.2
308.15 K, x1 = 0.9088 | 1409.18 | 28.32
308.15 K, x1 = 1 | 1426.43 | 32.91
313.15 K, x1 = 0.1025 | 1059.8 | 1.385
313.15 K, x1 = 0.2198 | 1151.8 | 2.614
313.15 K, x1 = 0.3178 | 1210.99 | 3.977
313.15 K, x1 = 0.4211 | 1260.71 | 6.414
313.15 K, x1 = 0.5268 | 1302.3 | 9.287
313.15 K, x1 = 0.622 | 1333.78 | 12.63
313.15 K, x1 = 0.7193 | 1361.32 | 16.35
313.15 K, x1 = 0.8139 | 1384.01 | 19.64
313.15 K, x1 = 0.9088 | 1404.39 | 23.69
313.15 K, x1 = 1 | 1421.66 | 27.56
318.15 K, x1 = 0.1025 | 1054.35 | 1.286
318.15 K, x1 = 0.2198 | 1146.57 | 2.391
318.15 K, x1 = 0.3178 | 1205.88 | 3.591
318.15 K, x1 = 0.4211 | 1255.69 | 5.815
318.15 K, x1 = 0.5268 | 1297.36 | 8.069
318.15 K, x1 = 0.622 | 1328.9 | 10.92
318.15 K, x1 = 0.7193 | 1356.48 | 14.18
318.15 K, x1 = 0.8139 | 1379.19 | 16.89
318.15 K, x1 = 0.9088 | 1399.6 | 20.05
318.15 K, x1 = 1 | 1416.91 | 23.33
323.15 K, x1 = 0.1025 | 1048.88 | 1.198
323.15 K, x1 = 0.2198 | 1141.33 | 2.194
323.15 K, x1 = 0.3178 | 1200.77 | 3.259
323.15 K, x1 = 0.4211 | 1250.68 | 5.216
323.15 K, x1 = 0.5268 | 1292.44 | 7.105
323.15 K, x1 = 0.622 | 1324.02 | 9.492
323.15 K, x1 = 0.7193 | 1351.66 | 12.28
323.15 K, x1 = 0.8139 | 1374.39 | 14.6
323.15 K, x1 = 0.9088 | 1394.85 | 17.26
323.15 K, x1 = 1 | 1412.17 | 19.97
328.15 K, x1 = 0.1025 | 1043.4 | 1.117
328.15 K, x1 = 0.2198 | 1136.07 | 2.025
328.15 K, x1 = 0.3178 | 1195.65 | 2.978
328.15 K, x1 = 0.4211 | 1245.68 | 4.71
328.15 K, x1 = 0.5268 | 1287.5 | 6.138
328.15 K, x1 = 0.622 | 1319.16 | 8.288
328.15 K, x1 = 0.7193 | 1346.84 | 10.66
328.15 K, x1 = 0.8139 | 1369.58 | 12.69
328.15 K, x1 = 0.9088 | 1390.1 | 15
328.15 K, x1 = 1 | 1407.45 | 17.41
